In BindingDB's records for patent US9242996 (Novartis, 2016):

Target: Mitogen-activated protein kinase 1 (Homo sapiens, UniProt P28482)
Assay: Kinase Assay (New)
Settings: pH 7.5
Experimental: Compound dilution series are prepared in 100% DMSO. ERK2 is preincubated with compounds for 30 minutes at ambient temperature. Reaction is initiated by addition of a substrate cocktail of ERKtide peptide and ATP and is allowed to proceed for 2-3 hours at ambient temperature. […] Terminated reactions are read, after overnight incubation in the dark, on an EnVision Multilabel Plate Reader (PerkinElmer, Waltham, Mass.), with excitation and emission wavelengths set to 680 nm and 570 nm, respectively. IC50 values are determined using a four-parameter fit.

Chain of Mitogen-activated protein kinase 1 (P28482 whole entry): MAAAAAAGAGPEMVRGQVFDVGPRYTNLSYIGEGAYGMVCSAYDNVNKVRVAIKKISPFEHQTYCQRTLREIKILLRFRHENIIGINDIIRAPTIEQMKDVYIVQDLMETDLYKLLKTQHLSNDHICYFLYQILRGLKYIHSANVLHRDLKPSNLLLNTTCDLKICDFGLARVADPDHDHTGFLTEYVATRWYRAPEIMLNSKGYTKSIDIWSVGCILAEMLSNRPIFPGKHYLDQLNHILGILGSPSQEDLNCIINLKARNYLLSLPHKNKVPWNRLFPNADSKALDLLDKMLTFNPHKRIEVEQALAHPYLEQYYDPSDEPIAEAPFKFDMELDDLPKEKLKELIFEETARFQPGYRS

Cc1nn(C)cc1-c1cnc(N)c(-c2ccc(C(=O)NCc3cccc(S(C)(=O)=O)c3)c(F)c2)n1 [US9242996, 145]
IC50: 7.33 nM
